Values of other authors in patent publication US20040102462A1, “2-(2-amino-1,6-dihydro-6-oxo-purin-9-yl) methoxy-1,3-propanediol derivative” (priority 1994, published 2004).

Details: rats; % of the acyclovir dosed

Nc1nc2c(ncn2COCCO)c(=O)[nH]1 [acyclovir, 2-(2-amino-1,6-dihydro-6-oxo-1,6-dihydro-purin-9-yl)methoxy-ethanol]
acyclovir recovered in the urinary recovery assay: 19%
